According to ChEMBL document CHEMBL4665802, “Design, Synthesis, and Structure-Activity Relationships of Indoline-Based Kelch-like ECH-Associated Protein 1-Nuclear Factor (Erythroid-Derived 2)-Like 2 (Keap1-Nrf2) Protein-Protein Interaction Inhibitors” (J Med Chem, 2020):
Calls of active or inactive are those of the source. No cut-off for these calls is given here.

Key:
Mus musculus [1] = assay: Upregulation of GCLM expression in LPS-stimulated C57BL/6 mouse model of sepsis at 10 to 40 mg/kg, ip qd administered for 3 days prior to LPS stimulation and measured after 12 hrs by Western blot analysis; assay type: functional, organism-based; conditions: dose mg/kg 10-40, time 3.5 day
[2] = AUC (0 to infinity) in rat at 5 mg/kg, iv by LC-MS/MS analysis; assay type: ADME, organism-based; design: time infinity, route intravenous, dose 5 mg/kg; conditions: in vivo
Mus musculus [3] = assay: Cardioprotective activity in LPS-stimulated sepsis in C57BL/6 mouse assessed as reduction in heart tissue inflammation at 10 mg/kg, ip qd administered for 3 days prior to LPS stimulation and measured after 12 hrs by hematoxylin and eosin staining based microscopy; assay type: functional, organism-based; conditions: time 3.5 day
[4] = AUC (0 to t) in rat at 5 mg/kg, iv by LC-MS/MS analysis; assay type: ADME, organism-based; design: dose 5 mg/kg; conditions: in vivo
[5] = target: T1, KEAP1/NRF2 (Rattus norvegicus) (UniProt O54968+P57790); assay: Inhibition of Keap1-Nrf2 protein-protein interaction in rat H9c2 cells assessed as upregulation of NQO1 mRNA expression incubated for 12 hrs by Trizol reagent based qRT-PCR analysis; assay type: cell-based; conditions: dose microM 0.1-10, time 12.0 hrs
H9c2 [6] = assay: Upregulation of Nrf2 mRNA expression in rat H9c2 cells at 10 uM incubated for 4 to 24 hrs by Trizol reagent based qRT-PCR analysis; assay type: functional, cell-based; conditions: time hrs 4-24
[7] = Metabolic stability in human liver microsome assessed as parent compound remaining at 1 uM preincubated for 5 mins followed by NADPH addition and measured after 45 mins by LC-MS/MS analysis; assay type: ADME; conditions: liver microsomes, time 50 min, read-out: Stabilty
H9c2 [8] = assay: Antioxidant activity against LPS-induced injury in rat H9c2 cells assessed as increase in GSH/GSSG ratio at 0.1 to 10 uM pretreated for 12 hrs followed by LPS addition measured after 12 hrs; assay type: functional, cell-based; conditions: dose microM 0.1-10, time 24.0 hrs
Mus musculus [9] = assay: Antiinflammatory activity in LPS-stimulated sepsis in C57BL/6 mouse assessed as decrease in IL-6 levels at 10 mg/kg, ip qd administered for 3 days prior to LPS stimulation and measured after 12 hrs by ELISA; assay type: functional, organism-based; conditions: time 3.5 day
Mus musculus [10] = assay: Antioxidant activity against LPS-induced injury in C57BL/6 mouse assessed as reduction in ROS levels at 10 to 40 mg/kg, ip qd administered for 3 days prior to LPS stimulation and measured after 12 hrs by H2DCFDA probe based flow cytometry; assay type: functional, organism-based; conditions: dose mg/kg 10-40, time 3.5 day
Mus musculus [11] = assay: Cardioprotective activity in LPS-stimulated sepsis in C57BL/6 mouse assessed as reduction in histological score at 10 mg/kg, ip qd administered for 3 days prior to LPS stimulation and measured after 12 hrs by hematoxylin and eosin staining based microscopy; assay type: functional, organism-based; conditions: time 3.5 day
CYP2C19 = CYP2C19 (Homo sapiens, UniProt P33261); assay: Inhibition of CYP2C19 (unknown origin) at 10 uM using omeprazole as substrate preincubated for 5 mins followed by NADPH addition and measured after 20 mins by LC-MS/MS analysis relative to control; assay type: ADME; conditions: probe omeprazole
[12] = target: T1, KEAP1/NRF2 (Rattus norvegicus); assay: Inhibition of Keap1-Nrf2 protein-protein interaction in rat H9c2 cells assessed as upregulation of GCLM mRNA expression at 10 uM incubated for 4 to 24 hrs by Trizol reagent based qRT-PCR analysis; assay type: cell-based; conditions: time hrs 4-24
[13] = target: T1, KEAP1/NRF2 (Rattus norvegicus); assay: Inhibition of Keap1-Nrf2 protein-protein interaction in rat H9c2 cells assessed as upregulation of HO1 expression at 10 uM incubated up to 24 hrs by Western blot; assay type: cell-based; conditions: time hrs <=24
[14] = target: T1, KEAP1/NRF2 (Rattus norvegicus); assay: Inhibition of Keap1-Nrf2 protein-protein interaction in rat H9c2 cells assessed as upregulation of HO1 mRNA expression incubated for 12 hrs by Trizol reagent based qRT-PCR analysis; assay type: cell-based; conditions: dose microM 0.1-10, time 12.0 hrs
[15] = Apparent clearance in rat at 5 mg/kg, iv by LC-MS/MS analysis; assay type: ADME, organism-based; conditions: in vivo
[16] = target: T1, KEAP1/NRF2 (Rattus norvegicus); assay: Inhibition of Keap1-Nrf2 protein-protein interaction in rat H9c2 cells assessed as upregulation of HO1 expression incubated for 12 hrs by Western blot analysis; assay type: cell-based; conditions: dose microM 0.1-10, time 12.0 hrs
CYP2C9 = CYP2C9 (Homo sapiens, UniProt P11712); assay: Inhibition of CYP2C9 (unknown origin) at 10 uM using […] as substrate preincubated for 5 mins followed by NADPH addition and measured after 20 mins by LC-MS/MS analysis relative to control; assay type: ADME
H9c2 [17] = assay: Upregulation of Nrf2 protein levels in rat H9c2 cells at 10 uM incubated up to 24 hrs by Western blot; assay type: functional, cell-based; conditions: time hrs <=24
H9c2 [18] = assay: Upregulation of Nrf2 mRNA expression in rat H9c2 cells incubated for 12 hrs by Trizol reagent based qRT-PCR analysis; assay type: functional, cell-based; conditions: dose microM 0.1-10, time 12.0 hrs
Mus musculus [19] = assay: Upregulation of HO1 expression in LPS-stimulated C57BL/6 mouse model of sepsis at 10 to 40 mg/kg, ip qd administered for 3 days prior to LPS stimulation and measured after 12 hrs by Western blot analysis; assay type: functional, organism-based; conditions: dose mg/kg 10-40, time 3.5 day
[20] = Half-life in rat at 5 mg/kg, iv by LC-MS/MS analysis; assay type: ADME, organism-based; conditions: in vivo
Mus musculus [21] = assay: Antioxidant activity against LPS-induced injury in C57BL/6 mouse assessed as increase in GSH/GSSG ratio at 10 mg/kg, ip qd administered for 3 days prior to LPS stimulation and measured after 12 hrs; assay type: functional, organism-based; conditions: dose mg/kg 10-40, time 3.5 day
[22] = target: T1, KEAP1/NRF2 (Rattus norvegicus); assay: Inhibition of Keap1-Nrf2 protein-protein interaction in rat H9c2 cells assessed as upregulation of HO1 mRNA expression at 10 uM incubated for 4 to 24 hrs by Trizol reagent based qRT-PCR analysis; assay type: cell-based; conditions: time hrs 4-24
[23] = target: T1, KEAP1/NRF2 (Rattus norvegicus); assay: Inhibition of Keap1-Nrf2 protein-protein interaction in rat H9c2 cells assessed as upregulation of GCLM mRNA expression incubated for 12 hrs by Trizol reagent based qRT-PCR analysis; assay type: cell-based; conditions: dose microM 0.1-10, time 12.0 hrs

CYP2C19, sequence (P33261 whole entry): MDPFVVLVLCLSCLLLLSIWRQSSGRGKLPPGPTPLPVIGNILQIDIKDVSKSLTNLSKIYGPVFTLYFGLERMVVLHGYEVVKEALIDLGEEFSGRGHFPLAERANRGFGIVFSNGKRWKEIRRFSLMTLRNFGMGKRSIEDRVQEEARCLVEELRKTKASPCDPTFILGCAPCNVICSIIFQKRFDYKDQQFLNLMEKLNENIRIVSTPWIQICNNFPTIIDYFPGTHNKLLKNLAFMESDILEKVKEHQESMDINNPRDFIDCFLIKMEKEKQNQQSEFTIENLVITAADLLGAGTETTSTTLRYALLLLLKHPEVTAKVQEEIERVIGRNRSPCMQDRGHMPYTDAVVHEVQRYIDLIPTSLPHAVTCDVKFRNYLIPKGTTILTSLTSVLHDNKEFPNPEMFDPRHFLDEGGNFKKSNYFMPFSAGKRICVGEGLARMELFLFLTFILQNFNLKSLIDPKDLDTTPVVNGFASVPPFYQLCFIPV
CYP2C9, sequence (P11712 whole entry): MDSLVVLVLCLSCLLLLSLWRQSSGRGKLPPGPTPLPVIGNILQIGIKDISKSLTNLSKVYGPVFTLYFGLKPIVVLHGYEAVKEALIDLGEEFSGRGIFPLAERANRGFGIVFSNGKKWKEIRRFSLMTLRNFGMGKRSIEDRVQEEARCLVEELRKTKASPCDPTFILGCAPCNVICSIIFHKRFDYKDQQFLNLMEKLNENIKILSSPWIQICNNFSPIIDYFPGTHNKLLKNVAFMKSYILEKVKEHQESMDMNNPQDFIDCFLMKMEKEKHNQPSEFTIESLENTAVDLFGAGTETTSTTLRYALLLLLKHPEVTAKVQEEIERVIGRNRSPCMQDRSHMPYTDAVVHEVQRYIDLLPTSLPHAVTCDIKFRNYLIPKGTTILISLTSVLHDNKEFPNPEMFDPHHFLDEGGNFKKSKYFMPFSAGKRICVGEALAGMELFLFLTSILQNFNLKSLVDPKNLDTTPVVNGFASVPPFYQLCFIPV

- AUC(0-inf) [2]: 47000 ng·h/mL
- AUC(0-t) [4]: 47000 ng·h/mL
- inhibition [5]: Dose-dependent effect
- remaining at 0.75 h, 1 µM [7]: 74.4%
- inhibition at 20 min, 10 µM (CYP2C19): 19.8%
- inhibition [12]: Active
- inhibition [13]: Active
- inhibition [14]: Dose-dependent effect
- clearance [15]: 1.83 mL/min/kg
- inhibition [16]: Dose-dependent effect
- inhibition at 20 min, 10 µM (CYP2C9): 30.3%
- half-life [20]: 4.02 h
- inhibition [22]: Active
- inhibition [23]: Dose-dependent effect
Structure (SMILES): COc1ccc(S(=O)(=O)NC(=O)CN(c2cccc3c2CCN3C(C(=O)NS(=O)(=O)c2ccc(C)cc2OC)c2cccc(OC)c2)S(=O)(=O)c2ccc(OC)cc2)cc1 (stereo not given)
- Activity (Mus musculus [1]): Active
- Activity (Mus musculus [3]): Active
- Activity (H9c2 [6]): Active
- Activity (H9c2 [8]): Active
- Activity (Mus musculus [9]): Active
- Activity (Mus musculus [10]): Active
- Activity (Mus musculus [11]): Active
- Activity (H9c2 [17]): Active
- Activity (H9c2 [18]): Dose-dependent effect
- Activity (Mus musculus [19]): Active
- Activity (Mus musculus [21]): Active
